The record followed here is US20230067910A1, “NOVEL COMPOUNDS FOR THE DIAGNOSIS, TREATMENT AND PREVENTION OF DISEASES ASSOCIATED WITH THE AGGREGATION OF ALPHA-SYNUCLEIN” (MODAG GMBH, priority 2019, published 2023).

Structures are written as SMILES. Like-named read-outs stand apart in the source and are kept apart here.

Assay [1] has as its target T1, alpha-synuclein (fibrils) (Homo sapiens, UniProt P37840).
T1 construct: made in house; host or cells: E. coli
Briefly: Competition binding assay, protocol 3a, reference ligand [3H]-compound 1, alpha-synuclein fibrils. To be noted: reference ligand [3H]-compound 1 (1 nM). The procedure: (§1) Alpha-synuclein and tau46 were purified from E. coli according to established protocols (Nuscher B, et al., J. Biol. Chem., 2004; 279(21):21966-75), Aβ1-42 was obtained from rPeptide, Watkinsville, Ga., USA. Fibrils were prepared by aggregation of recombinant protein via constant agitation. In detail, 70 μM of alpha-synuclein mixed with 100 mM NaCl in 50 mM Tris, pH 7.0+0.02% NaN3 were incubated at 1,400 rpm, 37° C. for 96 h. 10 μM of tau46 were incubated with 0.03 mg/ml heparin in 50 mM Tris, pH=7.0 at 1,000 rpm, 37° C. for 72 h. Aβ1-42 was solved in 20 mM NaPi, pH=8.0+0.2 mM EDTA+0.02% NaN3 (Deeg A A, et al., Biochim. Biophys. Acta, 2015; 1850(9): 1884-90; Goedert M, et al. Nature, 1996; 383(6600): 550-3).
(§2) A fixed concentration of sonicated human recombinant αSYN (200 nM/well) or tau46 (208 nM/well) fibrils diluted in phosphate buffered saline (PBS) were incubated in low binding plates (96 well micro test plate, Ratiolab GmbH, Dreieich, Germany) together with 1 nM [^3H]-compound 1 and 1:4 serial dilutions of the cold compound of interest starting from 1 μM diluted in 50 mM Tris-base, 10% EtOH, 0.05% Tween20, pH 7.4. For the calculation of Ki values the KD value of compound 1 toward sonicated human recombinant αSYN fibrils was set to 3 nM.
(§3) Assay plates were incubated under agitation at 37° C. for 2 h covered by plastic foil (Resealable tape, PerkinElmer, Waltham, Mass., USA). Prior to harvesting, a filter (Printed filtermat B, PerkinElmer, Waltham, Mass., USA) was incubated with 5 mg/mL polyethylenimine (PEI, Poly(ethyleneimine) solution, Sigma Aldrich Chemie GmbH, Taufkirchen, Germany) at 4° C. for 30 min. After incubation, bound and free ligands were separated by vacuum filtration using a harvester (Filtermate harvester, PerkinElmer, Waltham, Mass., USA). The filter was washed three times with buffer cooled to 4° C. and subsequently dried in the microwave for 2 min at medium power. The filter was sealed in a plastic bag (Sample bag for MicroBeta®, PerkinElmer, Waltham, Mass., USA) together with added scintillator (BETAPLATE SCINT, PerkinElmer, Waltham, Mass., USA). Accumulation of tritium was counted in a liquid scintillation counter (Wallac MicroBeta® TriLux, 1450 LSC & Luminescence Counter, PerkinElmer, Waltham, Mass., USA) immediately. Radioactivity was plotted against the increasing tritium-labeled compound or cold compound concentrations. Data points were fitted using nonlinear regression analysis in GraphPad Prism (GraphPad Software, Inc., Version 7.03, La Jolla, Calif., USA).
(§4) The fibril competition assay provides Ki values. Ki is a quantitative measure that represents the concentration of the non-radioactive tested compound (competitor ligand) required to replace 50% of a reference compound, in this case [H]-compound 1 (1 nM) or [H]-compound 2 (1 nM), which is bound to the target structures (1 nM), in our case recombinant alpha-synuclein and tau46 fibrils. This assay is suitable for a screening of non-radioactive ligands.

Assay [2] deals with H4 cells overexpressing alpha-synuclein hemi-Venus fusion constructs (V1S+SV2). Briefly: Cellular model of aggregated alpha-synuclein-dependent toxicity, V1S+SV2 H4 cells. In kind it is cell-based. The note with it: 10 μM compound, 100 μM FeCl3, 0.75% DMSO, 48 h; for inhibition at 10 µM: read-out: Change in fraction of condensed nuclei (rel. to DMSO control) [%]. The procedure: (§5) To identify potential therapeutically useful effects, compounds were tested in two cellular models of aggregated alpha-synuclein-dependent toxicity in H4 cells. These cellular models allow for the inducible overexpression of alpha-synuclein hemi-Venus fusion constructs (V1S+SV2) or full-length alpha-synuclein (the model is described in detail in: Bartels M, Weckbecker D, Kuhn P H, Ryazanov S, Leonov A, Griesinger C, Lichtenthaler S F, Bötzel K, Giese A: Iron-mediated aggregation and toxicity in a novel neuronal cell culture model with inducible alpha-synuclein expression, Sci. Rep. 2019 Jun. 24; 9(1):9100). Moreover, addition of DMSO and FeCl3 promotes the aggregation of alpha-synuclein which is associated with an increase in cytotoxicity. The cell culture assay uses these effects by determining the change in the number of cells and the change in the percentage of condensed nuclei, which is indicative of apoptosis, in order to obtain information on which compounds show the most promising effects and thus might be therapeutically useful.
(§6) In these experiments, cells were incubated with 100 μM FeCl3 and 0.75% DMSO in the presence of 10 μM anle138c as a positive control, compounds 1 to 19 (10 μM), or DMSO as a negative control. After 48 h, the cells were imaged with an OPERA high-throughput imaging system and analyzed using Acapella software (Perkin Elmer). […] A reduction in the fraction of condensed nuclei (in the absence of a strong reduction in cell number) is indicative of a beneficial therapeutic effect.

The target of assay [3] is T2, tau46 (fibrils) (Homo sapiens, UniProt P10636).
T2 construct: made in house; host or cells: E. coli
Briefly: Competition binding assay, protocol 3a, reference ligand [3H]-compound 1, tau46 fibrils. The note with it: Experiment B, reference ligand [3H]-compound 1 (1 nM). The procedure: as §1, §2, §3, §4

In assay [4] the target is T3, alpha-synuclein (sonicated fibrils) (Homo sapiens, UniProt P37840).
T3 construct: made in house; host or cells: E. coli
As to the kind of experiment: Modified competition binding assay, protocol 3b, reference ligand [3H]-compound 2. The note with it: Table 5, reference ligand [3H]-compound 2 (1 nM). A digest of the protocol:
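Sonicated recombinant human αSYN fibrils (15 nM/well) incubated with 1 nM [3H]-compound 2 and serially diluted unlabeled competitor in 30 mM Tris-HCl, 10% ethanol, 0.05% Tween20, pH 7.4, 4.5 h at RT. Filtration readout; IC50 by non-linear regression, Ki calculated using KD 0.2 nM.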

The target of assay [5] is T3, alpha-synuclein (sonicated fibrils). As to the kind of experiment: Modified competition binding assay, protocol 3b, reference ligand [3H]-compound 1. The note with it: Table 4b, reference ligand [3H]-compound 1 (1 nM), read-out: Ki (nM) alpha-synuclein (sonicated fibrils). The procedure:
Fibrils were prepared by aggregation of recombinant protein via constant agitation. In detail, 70 μM of alpha-synuclein mixed with 100 mM NaCl in 50 mM Tris, pH 7.0+0.02% NaN3 were incubated at 1,400 rpm, 37° C. for 96 h. 10 μM of tau46 were incubated with 0.03 mg/ml heparin in 50 mM Tris, pH=7.0 at 1,000 rpm, 37° C. for 72 h.
Plates were incubated for 4.5 hours at RT covered by removable sealing tape (PerkinElmer, Waltham, Mass., USA).
Filtration and readout were performed as described for saturation binding assays.
The fibril competition assay provides Ki values. […] This assay is suitable for a screening of non-radioactive ligands.

Assay [6] deals with H4 cells overexpressing full-length alpha-synuclein. Briefly: Cellular model of aggregated alpha-synuclein-dependent toxicity, full-length alpha-synuclein H4 cells. Type of assay: cell-based. To be noted: 10 μM compound, 100 μM FeCl3, 0.75% DMSO, 48 h; for inhibition at 10 µM: read-out: Change in fraction of condensed nuclei (rel. to DMSO control) [%]. The procedure: as §5, §6

Setting [7] is: Experiment B, read-out: Ki (nM) alpha-synuclein (sonicated fibrils).

T2 sequence (P10636 1-412 isoform P10636-7): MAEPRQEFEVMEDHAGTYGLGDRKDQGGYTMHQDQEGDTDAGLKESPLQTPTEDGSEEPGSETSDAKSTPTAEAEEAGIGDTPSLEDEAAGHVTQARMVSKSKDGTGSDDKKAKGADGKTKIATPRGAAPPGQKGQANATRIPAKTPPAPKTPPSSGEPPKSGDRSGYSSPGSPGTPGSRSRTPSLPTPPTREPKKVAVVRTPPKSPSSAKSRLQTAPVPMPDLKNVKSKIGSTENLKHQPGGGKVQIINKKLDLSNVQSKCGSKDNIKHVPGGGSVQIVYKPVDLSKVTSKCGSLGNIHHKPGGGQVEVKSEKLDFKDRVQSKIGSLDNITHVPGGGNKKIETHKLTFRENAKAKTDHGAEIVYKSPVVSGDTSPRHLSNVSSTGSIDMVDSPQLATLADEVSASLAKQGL

Regarding `Brc1cc(-c2cc(-c3ccc4c(c3)OCO4)n[nH]2)ccn1` [Compound 9, 4-[3-(1,3-benzodioxol-5-yl)-1H-pyrazol-5-yl]-2-bromopyridine], the Ki in assay [1] (Experiment A, read-out: Ki (nM) alpha-synuclein (fibrils)) is 2 nM; in assay [1] (setting [7]) it was under 4 nM; in assay [3], 28 nM; in assay [4], 3.3 nM; in assay [5] it was 2.1 nM. In addition, the “Change in cell number (rel. to DMSO control) [%]” value in assay [2] is on record as −22.5%; in assay [6], −35.3%. In addition, the inhibition at 10 µM in assay [2] is 31.8%; in assay [6], 23.8%.
As to `Brc1cc(-c2cc(-c3ccc(N4CCC4)cc3)n[nH]2)ccn1` [Compound 17, 4-{3-[4-(azetidin-1-yl)phenyl]-1H-pyrazol-5-yl}-2-bromopyridine], the results for the Ki in assay [1] (setting [7]), in assay [3] and in assay [4] were 2 nM, 1 nM and 0.8 nM, respectively. In addition, the figures for the “Change in cell number (rel. to DMSO control) [%]” value in assay [2] and in assay [6] were −8.2% and −28.9%, respectively. Further, the inhibition at 10 µM is 38.3% in assay [2] and 55% in assay [6].
